# “Also recorded” adds a separate entry of the source. Read-outs that look alike come from different tables or passages of the source.
# What was measured:
# human neutrophils [1] = test: TNF-triggered H2O2 release (respiratory burst) by adherent human neutrophils; format: cell-based; settings: for IC50: Homo sapiens, Neutrophil, TNF 100 ng/ml; for Concentration that consistently yielded over 95% inhibition on TNF triggered RB: empirically decided for each compound
# Protocol: Contaminating erythrocytes were lysed by hypotonic shock for 45 seconds with 0.2% saline.
# Briefly, 15,000 compounds were screened to identify specific inhibitors of TNF-triggered H2O2 release in human neutrophils. H2O2 release was measured as above except a few modifications to adapt to high throughput screening. […] Percent inhibition by each compound was calculated using the formula: […]
# Briefly, 96-well flat-bottomed plates (Primaria, Falcon) were coated with 50 μl/well of FBS in 5% CO2 at 37° C. for at least 1 h and washed three times with 0.9% saline. Neutrophils (1.5×10^4) were added to triplicate wells containing 100 μl of reaction mixture (2.4 nm scopoletin, 0.5 μg horseradish peroxidase (HRP), and 1 mM NaN3) and stimulated with either buffer control, TNF (PreproTech, London, UK) or phorbol myristate acetate (PMA), each at 100 ng/ml. […] The supernatant from the H2O2 release assay with 1.5×10^4 neutrophils was used to measure degranulation using lactoferrin (LF) or myeloperoxidase (MPO) ELISA kit (Oxis International, Inc., Portland, Oreg.). Spontaneous cell death from the same supernatant was measured using Cytotoxicity Detection Kit (Roche Molecular Biochemicals, Nutley, N.J.). The total cell content of LF, MPO, and lactate dehydrogenase (LDH) was determined after lysing cells with 1% Triton X100. LDH is a cytosolic enzyme whose release indicates cell lysis, such that high release of LF or MPO in the face of low release of LDH is taken as a measure of degranulation.
# human neutrophils [2] = test: Neutrophil spreading on FBS-coated glass coverslips (phase-contrast microscopy); format: cell-based; settings: TNF 100 ng/ml
# Protocol: Glass coverslips were placed in 12 well tissue culture plate and coated with FBS in 5% CO2 at 37° C. for at least 1 h and washed three times with 0.9% saline. Neutrophils (2×10^6) were added to each well containing a FBS-coated glass coverslip and 1 ml of reaction mixture and incubated or not with each compound at 37° C. for 30 min before stimulation with TNF (100 ng/ml), PMA (100 ng/ml) or an equal volume of KRPG. Cells were fixed with 2% paraformaldehyde and 3.7% formaldehyde buffer, and photographed with phase-contrast microscope.
# To determine whether any of these compounds are implicated in cytoskeletal rearrangement, neutrophils were treated with a compound of the present invention or DMSO and then activated with PMA or TNF. Human neutrophils, isolated as described herein above were plated on FBS-coated glass coverslips and incubated or not with a compound of the present invention at 37° C. for 30 min, followed by stimulation with TNF (100 ng/ml), PMA (100 ng/ml) or an equal volume of KRPG, fixed, and photographed with phase-contrast microscope. Neutrophils adhere and fully spread when activated. However, cells exposed to TNF after incubation with Comp I-IV were arrested in spreading. These compounds seem to block different stages of cell spreading. […] They display almost round and close to non-stimulated cell morphology to quite advanced, yet arrested phenotype before full spreading. […] None of the compounds impeded cell spreading induced by PMA.
# Syk = test: TNF and adhesion triggered tyrosine phosphorylation of Syk in neutrophils (immunoprecipitation, western blot); format: cell-based, human; settings: for inhibition of TNF and adhesion triggered tyrosine phosphorylation of Syk: moderately inhibited; for TNF and adhesion triggered tyrosine phosphorylation (activation) of Syk: result in words
# Protocol: Tissue culture plates (Primaria, Falcon) were coated with 3 ml of FBS in 5% CO2 at 37° C. for at least 1 h and washed twice with 0.9% saline. Isolated human neutrophils (1.5×10^6) were added to each plate containing 4 ml of reaction mixture, incubated with each compound at 37° C. for 30 min, and stimulated with either buffer control or TNF (100 ng/ml). When cells were fully spread (20-40 min), they were treated with 5 mM diisopropylfluorophosphate to inhibit serine proteases and lysed with either 125 μl of SDS lysis buffer (10 mM Tris-HCl, pH 7.6, 150 mM NaCl, 1% SDS, 1 mM PMSF, 1 mM Na pyrophosphate, 1 mM NaF, 1 mM vanadate, 5 μg/ml each of aprotinin, leupeptin, chymostatin, pepstatin A) for western blot, or with 200 μl of non-denaturing modified RIPA buffer (10 mM Tris-HCl, pH 7.6, 150 mM NaCl, 1% Triton-X100, 1 mM PMSF, 1 mM Na pyrophosphate, 1 mM NaF, 1 mM vanadate, 5 μg/ml each of aprotinin, leupeptin, chymostatin, pepstatin A) for immunoprecipitation. The cell lysate was passed through a 26-gauge needle six times to shear DNA and centrifuged at 20,000×g for 15 min to remove cell debris and DNA. The protein concentration was determined using a Bio-Rad (Indianapolis, Ind.) kit. Cell lysates were separated by SDS-PAGE and transferred electrophoretically to nitrocellulose membranes (Schleicher & Schuell, Inc., Keene, N.H.). The membranes were incubated with 5% milk in TBST ([…], 0.1% Tween-20) for 1 h at 37° C. and then overnight at 4° C. with anti-phosphotyrosine antibody (Santa Cruz), anti-Syk antibody (Transduction Laboratories, Newington, N.H.), anti-phospho-specific Pyk2 antibodies (Biosource International, Camarillo, Calif.), or anti-Pyk2 antibody (Upstate Biotech, Waltham, Mass.). Membranes were washed with TBST and incubated with secondary Ab conjugated with HRP in 5% milk in TBST for 1 h at 37° C. After further washing with TBST, bound antibody was detected by enhanced chemiluminescence (Pierce ECL, Amersham Pharmacia, Piscataway, N.J.).
# Also investigated was the impact of the compounds of the present invention on several known tyrosine kinases such as Src, Syk, and Pyk2, which are shown to be critical in the signaling pathways triggered by TNF. Kinase assays were performed according to the instructions provided by United Bioinformatica, Inc. ((UBI) Calgary, AB, Canada), from which recombinant Src and Syk were purchased. Briefly, after incubation of recombinant Src (40 U) (UBI, Calgary, AB, Canada) with each compound at RT for 30 min, Src kinase reaction buffer (100 mM Tris-HCl, pH 7.2, 125 mM MgCl2, 25 mM MnCl2, 2 mM EGTA, 0.25 mM NaOV4, 2 mM DTT), Src kinase substrate peptide (375 μM, UBI, Calgary, AB, Canada), and [γ-32P]ATP were added to the enzyme. After incubation at 30° C. for 10 min, the reaction was stopped by addition of 40% trichloroacetic acid (TCA). Samples were transferred to a P81 paper square (UBI, Calgary, AB, Canada), the unincorporated radioactivity was washed off with 0.75% phosphoric acid and acetone, and the assay square was placed in a scintillation counter. For Syk kinase assay, reaction buffer contained 50 mM Tris-HCl, pH 7.5, 0.1 mM EGTA, 0.1 mM NaOV4, 0.15 M 2-mercaptoethanol and substrate was poly (Glu-4-Tyr)(4:1) (CSI Biointernational, France). […] It appears that these compounds block—partially by Comp I and II and completely by Comp III and IV—upstream signaling events for Syk activation rather than directly blocking Syk activity.
# [3] = 1.5 h, H2O2 release at 90 min, read-out: IC50, TNF triggered H2O2 release
SMILES,IC50 (human neutrophils [1]; [3]) [nM],Concentration that consistently yielded over 95% inhibition on TNF triggered RB (human neutrophils [1]) [µM],cell spreading triggered by TNF (human neutrophils [2]),inhibition of TNF and adhesion triggered tyrosine phosphorylation of Syk (Syk),effect on TNF triggered H2O2 release (respiratory burst) (human neutrophils [1]; result in words),TNF and adhesion triggered tyrosine phosphorylation (activation) of Syk (Syk),"IC50 (human neutrophils [1]; range given with mixed units nM and μM, read-out: IC50, TNF triggered H2O2 release (very variable)) [nM]"
"Cc1nc(N/N=C/c2ccccc2O)c2c3c(sc2n1)CCCC3 [Comp I, 2-[(2-Methyl-5,6,7,8-tetrahydro-benzo[4,5]thieno [2,3-a]pyrimidin-4-yl)-hydrazonomethyl]-phenol]",~180,2,very heterogeneous morphology,about 50%,–,–,–
"O=C1CC(c2ccccc2)=NN1c1cccc(Cl)c1 [Comp II, 2-(3-Chloro-phenyl)-5-phenyl-2,4-dihydro-pyrazol-3-one]",1600 ± 400,5,arrested after flattening and extending several filopodia; also recorded: inhibited,about 50%,inhibited,did not block,–
"C(=N\Nc1ncnc2sc3c(c12)CCCC3)/c1cccnc1 [Comp III, N-Pyridin-3-ylmethylene-N-(5,6,7,8-tetrahydro-benzo[4,5] [2,3-a]pyrimidin-4-yl)-hydrazine]",2500 ± 1500,5,after extending a few pseudopodia; also recorded: block cell spreading at the earliest stage,–,–,completely inhibited,–
"O=C(CSc1nc2ccccc2s1)N/N=C/c1cc([N+](=O)[O-])ccc1O [Comp IV, (Benzothiazol-2-ylsulfanyl)-acetic acid (2-hydroxy-5-nitro-benzylidene) -hydrazide]",–,10,arrested after flattening and extending several filopodia,–,–,completely inhibited,3 to 2000
